Experiment [1] deals with PI3Kδ (p110δ/p85α) Recombinant Human Protein (Homo sapiens (Human), UniProt O00329). As to the kind of experiment: PI3Kδ Scintillation Proximity Assay. Type of experiment: biochemical. The procedure, abridged:
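Recombinant human p110δ/p85α (3.4 nM) with 20 μM PIP2 and 2 μM ATP plus [γ-33P]ATP, in 20 mM MOPS pH 6.7, 10 mM MgCl2, 5 mM DTT, 0.03% CHAPS, 2% DMSO; 120 min at room temperature. Product captured on WGA SPA beads, scintillation counted; IC50 from percent-of-control curves.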
Background: SPA uses beads or plates that emit light when radiolabelled molecules are held near them.

Experiment [2] relates to Phosphorylated Ribosomal Protein S6 (RPS6). As to the kind of experiment: THP-1 RPS6 ELISA Assay. The following applies: THP-1 cells, read-out: PI3Kγ_THP1_RPS6_ELISA IC50. It is filed as cell-based, Human. The gist of the method:
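Serum-starved THP-1 cells were preincubated with a concentration range of compound for 2 h at 37 °C, then stimulated with 10 nM MCP-1 for 15 min. Phospho-RPS6 in lysates was quantified by ELISA at 450 nm. IC50 came from percent inhibition versus log inhibitor concentration.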

Experiment [3] concerns the target PI3Kγ (p110γ) Recombinant Human Protein (Homo sapiens (Human), UniProt P48736). The experiment in a line: PI3K-γ Scintillation Proximity Assay. Type of experiment: biochemical. The following applies: read-out: PI3Kγ IC50. The gist of the method: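 Recombinant human p110γ assayed at room temperature in 20 mM MOPS pH 6.7, 10 mM MgCl2, 5 mM DTT, 0.03% CHAPS, 2% DMSO, with 20 μM PIP2 and 2 μM ATP plus [γ-33P]ATP. Product captured on WGA SPA beads overnight and counted; IC50 fitted from % of solvent-control activity versus log inhibitor concentration.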

Where a name gives a salt, the structure may show the parent alone. Read-outs that look alike come from different tables or passages of the source.

PI3Kγ (p110γ) Recombinant Human Protein, sequence (P48736 whole entry): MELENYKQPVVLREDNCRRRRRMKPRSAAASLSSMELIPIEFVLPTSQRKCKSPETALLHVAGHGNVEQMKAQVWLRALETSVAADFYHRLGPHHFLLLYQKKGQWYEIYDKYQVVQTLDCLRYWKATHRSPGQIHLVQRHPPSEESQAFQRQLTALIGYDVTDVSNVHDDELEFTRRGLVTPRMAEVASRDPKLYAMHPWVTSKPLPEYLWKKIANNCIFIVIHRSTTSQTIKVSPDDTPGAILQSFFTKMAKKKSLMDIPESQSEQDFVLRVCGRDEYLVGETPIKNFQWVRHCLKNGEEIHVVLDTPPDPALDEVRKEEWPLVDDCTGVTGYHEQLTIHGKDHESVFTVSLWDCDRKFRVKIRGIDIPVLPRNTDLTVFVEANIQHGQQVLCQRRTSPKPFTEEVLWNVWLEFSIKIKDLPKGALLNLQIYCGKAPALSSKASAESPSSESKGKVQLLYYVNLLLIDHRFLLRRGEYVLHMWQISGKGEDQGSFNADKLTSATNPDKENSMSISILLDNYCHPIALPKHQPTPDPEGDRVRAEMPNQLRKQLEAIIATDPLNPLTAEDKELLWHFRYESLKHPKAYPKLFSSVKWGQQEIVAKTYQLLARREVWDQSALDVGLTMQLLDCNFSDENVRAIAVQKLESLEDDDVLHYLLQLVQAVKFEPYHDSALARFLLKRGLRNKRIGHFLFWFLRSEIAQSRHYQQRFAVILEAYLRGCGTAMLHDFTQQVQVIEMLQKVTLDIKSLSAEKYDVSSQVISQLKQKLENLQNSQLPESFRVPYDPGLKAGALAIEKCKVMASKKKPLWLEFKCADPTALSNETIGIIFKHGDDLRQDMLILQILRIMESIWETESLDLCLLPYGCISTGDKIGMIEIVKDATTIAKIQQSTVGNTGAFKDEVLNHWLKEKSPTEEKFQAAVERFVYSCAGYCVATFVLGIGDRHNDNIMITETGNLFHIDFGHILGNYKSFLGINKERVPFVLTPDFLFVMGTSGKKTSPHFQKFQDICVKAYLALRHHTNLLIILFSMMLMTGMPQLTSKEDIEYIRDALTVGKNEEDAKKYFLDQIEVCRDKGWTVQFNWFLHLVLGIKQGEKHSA
PI3Kδ (p110δ/p85α) Recombinant Human Protein, sequence (O00329 whole entry): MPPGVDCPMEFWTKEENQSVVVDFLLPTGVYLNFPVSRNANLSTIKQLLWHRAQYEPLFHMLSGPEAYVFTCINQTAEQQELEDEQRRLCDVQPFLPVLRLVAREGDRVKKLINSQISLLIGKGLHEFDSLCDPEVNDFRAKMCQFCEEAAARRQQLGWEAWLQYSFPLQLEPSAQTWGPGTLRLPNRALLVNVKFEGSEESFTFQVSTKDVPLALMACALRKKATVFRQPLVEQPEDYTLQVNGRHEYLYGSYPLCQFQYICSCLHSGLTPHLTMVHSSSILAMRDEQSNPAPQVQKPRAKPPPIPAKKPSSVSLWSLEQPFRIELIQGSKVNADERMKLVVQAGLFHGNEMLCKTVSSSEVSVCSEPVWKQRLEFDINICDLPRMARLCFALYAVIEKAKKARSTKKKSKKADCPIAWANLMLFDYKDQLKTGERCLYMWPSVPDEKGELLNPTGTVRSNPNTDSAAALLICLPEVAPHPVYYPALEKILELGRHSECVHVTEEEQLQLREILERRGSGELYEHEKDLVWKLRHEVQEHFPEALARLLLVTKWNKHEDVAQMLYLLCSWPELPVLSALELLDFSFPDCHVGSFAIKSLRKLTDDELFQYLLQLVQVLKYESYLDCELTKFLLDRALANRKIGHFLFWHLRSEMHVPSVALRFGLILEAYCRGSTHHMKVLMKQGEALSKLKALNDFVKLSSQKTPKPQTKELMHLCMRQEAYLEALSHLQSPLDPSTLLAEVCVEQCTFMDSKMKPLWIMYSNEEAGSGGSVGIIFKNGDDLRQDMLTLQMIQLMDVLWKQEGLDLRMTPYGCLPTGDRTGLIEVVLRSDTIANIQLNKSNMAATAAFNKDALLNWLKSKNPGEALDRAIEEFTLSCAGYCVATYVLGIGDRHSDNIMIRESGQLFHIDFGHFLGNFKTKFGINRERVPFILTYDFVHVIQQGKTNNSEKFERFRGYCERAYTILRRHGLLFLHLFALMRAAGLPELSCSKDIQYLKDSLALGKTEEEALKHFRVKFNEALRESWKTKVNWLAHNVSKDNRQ
PI3Kδ (p110δ/p85α) Recombinant Human Protein, sequence (P27986 whole entry partner): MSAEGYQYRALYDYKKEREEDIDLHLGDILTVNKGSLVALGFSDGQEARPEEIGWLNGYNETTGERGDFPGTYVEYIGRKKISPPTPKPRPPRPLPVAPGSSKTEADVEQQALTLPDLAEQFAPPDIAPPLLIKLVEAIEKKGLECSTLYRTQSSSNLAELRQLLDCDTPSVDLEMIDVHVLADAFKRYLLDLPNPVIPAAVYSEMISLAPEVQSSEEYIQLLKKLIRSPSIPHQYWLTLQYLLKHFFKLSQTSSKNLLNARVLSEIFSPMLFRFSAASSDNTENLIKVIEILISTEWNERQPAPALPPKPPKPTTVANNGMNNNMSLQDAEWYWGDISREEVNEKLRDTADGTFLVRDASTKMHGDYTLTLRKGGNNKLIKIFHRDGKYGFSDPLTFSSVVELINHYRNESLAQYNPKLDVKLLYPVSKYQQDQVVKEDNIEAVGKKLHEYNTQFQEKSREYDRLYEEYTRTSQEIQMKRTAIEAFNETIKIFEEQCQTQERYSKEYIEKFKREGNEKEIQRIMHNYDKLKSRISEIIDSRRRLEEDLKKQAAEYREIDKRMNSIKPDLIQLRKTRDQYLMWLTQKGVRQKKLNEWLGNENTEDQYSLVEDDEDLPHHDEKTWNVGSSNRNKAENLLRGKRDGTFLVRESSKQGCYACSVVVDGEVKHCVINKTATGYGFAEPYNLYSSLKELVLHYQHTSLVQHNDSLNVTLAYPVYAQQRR

As to `Cc1cccc(-c2cn3c(-c4cc(S(=O)(=O)N[C@H]5CC[C@H](O)CC5)ccc4C)cnc3c(N)n2)c1` [Example 19, 3-[8-Amino-6-(3-methylphenyl)imidazo[1,2-a]pyrazin-3-yl]-N-(trans-4-hydroxycyclohexyl)-4-methylbenzenesulfonamide], the 50% inhibitory concentration (IC50) (commonly the concentration needed to halve the response being measured) in experiment [1] was 100 to 500 nM; in experiment [2] (Homo sapiens), less than 100 nM; in experiment [3], less than 100 nM.
On to `Nc1nccn2c(-c3cc(S(=O)(=O)N[C@H]4CC[C@H](O)CC4)ccc3F)cnc12` [Example 42, 3-(8-Aminoimidazo[1,2-a]pyrazin-3-yl)-4-fluoro-N-(trans-4-hydroxycyclohexyl)benzenesulfonamide], for which the IC50 in experiment [1] is 500 to 2000 nM; in experiment [2] (Homo sapiens), 500 to 1000 nM; in experiment [3] it was less than 100 nM.
As for `Cc1ccc(S(=O)(=O)N[C@H]2CC[C@](O)(C(F)(F)F)CC2)cc1-c1cnc2c(N)ncnn12` [Example 124, 3-(4-aminoimidazo[2,1-f][1,2,4]triazin-7-yl)-N-[cis-4-hydroxy-4-(trifluoromethyl)cyclohexyl]-4-methylbenzenesulfonamide], the figures for the 50% inhibitory concentration (IC50) in experiment [1], in experiment [2] and in experiment [3] were 100 to 500 nM, 100 to 500 nM and less than 100 nM, respectively.
For the compound `Cc1ccc(S(N)(=O)=O)cc1-c1cnc2c(N)ncnn12` [Example 139, 3-(4-aminoimidazo[2,1-f][1,2,4]triazin-7-yl)-4-methylbenzenesulfonamide], the IC50 was 500 to 2000 nM in experiment [1], greater than 1000 nM in experiment [2] (Homo sapiens) and less than 100 nM in experiment [3].
Regarding `Cc1ccc(S(=O)(=O)N[C@H]2CC[C@H](CO)OC2)cc1-c1cnc2c(N)nc(C(F)(F)F)nn12` [Example 356, 3-(4-amino-2-(trifluoromethyl)imidazo[2,1-f][1,2,4]triazin-7-yl)-N-((3S,6R)-6-(hydroxymethyl)tetrahydro-2H-pyran-3-yl)-4-methylbenzenesulfonamide], the IC50 in experiment [1] was 100 to 500 nM; in experiment [2] (Homo sapiens) it was less than 100 nM; in experiment [3], less than 100 nM.
As to `Cc1ccc(S(=O)(=O)N2CC3(CC(O)C3)C2)cc1-c1cnc2c(N)ncnn12` [Example 145, 2-((3-(4-aminoimidazo[2,1-f][1,2,4]triazin-7-yl)-4-methylphenyl)sulfonyl)-2-azaspiro[3.3]heptan-6-ol, TFA], the half-inhibitory concentration (IC50) was 100 to 500 nM in experiment [1], 100 to 500 nM in experiment [2] and less than 100 nM in experiment [3].
`Cc1ccc(S(=O)(=O)NCC2CCOC2)cc1-c1cnc2c(N)nccn12` (stereo not drawn) [Example 48, 3-(8-Aminoimidazo[1,2-a]pyrazin-3-yl)-4-methyl-N-(tetrahydrofuran-3-ylmethyl)benzenesulfonamide]: the IC50 was 500 to 2000 nM in experiment [1], greater than 1000 nM in experiment [2] (Homo sapiens) and less than 100 nM in experiment [3].
Turning to `Cc1ccc(S(=O)(=O)NC23CC(C#N)(C2)C3)cc1-c1cnc2c(N)nc(C(F)(F)F)cn12` [Example 287, 3-(8-Amino-6-(trifluoromethyl)imidazo[1,2-a]pyrazin-3-yl)-N-(3-cyanobicyclo[1.1.1]pentan-1-yl)-4-methylbenzenesulfonamide], the 50% inhibitory concentration (IC50) in experiment [1] is 100 to 500 nM; in experiment [2] (Homo sapiens), less than 100 nM; in experiment [3] it was less than 100 nM.
In the case of `Nc1nc(C(F)(F)F)cn2c(-c3cc(S(=O)(=O)NC45CCC(CO)(C4)C5)ccc3Cl)cnc12` [Example 393, 3-(8-Amino-6-(trifluoromethyl)imidazo[1,2-a]pyrazin-3-yl)-4-chloro-N-(4-(hydroxymethyl)bicyclo[2.1.1]hexan-1-yl)benzenesulfonamide], the IC50 in experiment [1] was 500 to 2000 nM; in experiment [2] (Homo sapiens) it was 100 to 500 nM; in experiment [3] it was less than 100 nM.
Take `Cc1ccc(S(=O)(=O)N2CCCC23CCOC3)cc1-c1cnc2c(N)ncnn12` (stereo not drawn) [Example 208, 7-(5-((7-Oxa-1-azaspiro[4.4]nonan-1-yl)sulfonyl)-2-methylphenyl)imidazo[2,1-f][1,2,4]triazin-4-amine]: the figures for the IC50 in experiment [1], in experiment [2] (Homo sapiens) and in experiment [3] were 500 to 2000 nM, 500 to 1000 nM and less than 100 nM, respectively.
The like results for `Cc1ccc(S(=O)(=O)NC23CCC(C#N)(CC2)CC3)cc1-c1cnc2c(N)ncnn12` [Example 187, 3-(4-aminoimidazo[2,1-f][1,2,4]triazin-7-yl)-N-(4-cyanobicyclo[2.2.2]octan-1-yl)-4-methylbenzenesulfonamide] were, in that order, 100 to 500 nM, 100 to 500 nM and less than 100 nM.
For `Cl.[2H]C([2H])([2H])c1ccc(S(=O)(=O)NC23CCC(C#N)(C2)C3)cc1-c1cnc2c(N)ncnn12` [Example 254, 3-(4-Aminoimidazo[2,1-f][1,2,4]triazin-7-yl)-N-(4-cyanobicyclo[2.1.1]hexan-1-yl)-4-(methyl-d3)benzenesulfonamide crystalline hydrochloric acid salt], in that order: 100 to 500 nM, less than 100 nM and less than 100 nM.
In the case of `Cc1ccc(S(=O)(=O)NC23CCC(C(O)c4ccccc4)(CC2)OC3)cc1-c1cnc2c(N)ncnn12` (racemic) [Example 438, 3-(4-Aminoimidazo[1,2-f][1,2,4]triazin-7-yl)-N-(1-(hydroxy(phenyl)methyl)-2-oxabicyclo[2.2.2]octan-4-yl)-4-methylbenzenesulfonamide trifluoroacetate salt (racemic)], the half-inhibitory concentration (IC50) is 100 to 500 nM in experiment [1], less than 100 nM in experiment [2] (Homo sapiens) and less than 100 nM in experiment [3].
As to `Cc1ccc(S(=O)(=O)NC23COC(C)(C2)C3)cc1-c1cnc2c(N)ncnn12` [Example 424, 3-(4-Aminoimidazo[1,2-f][1,2,4]triazin-7-yl)-4-methyl-N-(1-methyl-2-oxabicyclo[2.1.1]hexan-4-yl)benzenesulfonamide trifluoroacetate salt], the IC50 in experiment [1] was 100 to 500 nM; in experiment [2] (Homo sapiens), 100 to 500 nM; in experiment [3], less than 100 nM.
`Cc1ccc(S(=O)(=O)NC2(C#N)CCC2)cc1-c1cnc2c(N)ncnn12` [Example 192, 3-(4-aminoimidazo[2,1-f][1,2,4]triazin-7-yl)-N-(1-cyanocyclobutyl)-4-methylbenzenesulfonamide trifluoroacetate]: the half-maximal inhibitory concentration (IC50) in experiment [1] is 100 to 500 nM; in experiment [2] (Homo sapiens), 500 to 1000 nM; in experiment [3], less than 100 nM.
Take `CCS(=O)(=O)Nc1cc(-c2cnc3c(N)nccn23)cnc1F` [Example 14, N-[5-(8-Aminoimidazo[1,2-a]pyrazin-3-yl)-2-fluoropyridin-3-yl]ethanesulfonamide bis(trifluoroacetate)]: the IC50 in experiment [1] was less than 100 nM; in experiment [2] (Homo sapiens), greater than 1000 nM; in experiment [3], less than 100 nM.
For `Cc1nc(N)c2ncc(-c3cc(S(=O)(=O)NCC(C)(C)O)cc(F)c3C)n2n1` [Example 468, 3-(4-Amino-2-methylimidazo[2,1-f][1,2,4]triazin-7-yl)-5-fluoro-N-(2-hydroxy-2-methylpropyl)-4-methylbenzenesulfonamide], the concentration for half-maximal inhibition (IC50) is 100 to 500 nM in experiment [1], 100 to 500 nM in experiment [2] (Homo sapiens) and less than 100 nM in experiment [3].
Turning to `Cc1ccc(S(=O)(=O)N2CCC3(CCCO3)CC2)cc1-c1cnc2c(N)ncnn12` [Example 194, 7-(5-((1-Oxa-8-azaspiro[4.5]decan-8-yl)sulfonyl)-2-methylphenyl)imidazo[2,1-f][1,2,4]triazin-4-amine], the IC50 was 500 to 2000 nM in experiment [1], 100 to 500 nM in experiment [2] (Homo sapiens) and less than 100 nM in experiment [3].
For the compound `COc1ncccc1-c1cn2c(-c3cc(S(=O)(=O)C(C)(C)C(C)O)ccc3C)cnc2c(N)n1` (stereo not drawn) [Example 502, 3-((3-(8-Amino-6-(2-methoxypyridin-3-yl)imidazo[1,2-a]pyrazin-3-yl)-4-methylphenyl)sulfonyl)-3-methylbutan-2-ol trifluoroacetate], the IC50 in experiment [1] was less than 100 nM; in experiment [2] (Homo sapiens), 100 to 500 nM; in experiment [3] it was less than 100 nM.
Turning to `Cc1ccc(S(=O)(=O)N[C@H]2CC[C@H](O)CC2)cc1-c1cnc2c(N)nc(-c3cccs3)cn12` [Example 27, 3-[8-Amino-6-(2-thienyl)imidazo[1,2-a]pyrazin-3-yl]-N-(trans-4-hydroxycyclohexyl)-4-methylbenzenesulfonamide], the values for the half-inhibitory concentration (IC50) in experiment [1], in experiment [2] (Homo sapiens) and in experiment [3] were 100 to 500 nM, less than 100 nM and less than 100 nM, respectively.
As for `Cc1ccc(S(=O)(=O)N[C@H]2CC[C@H](NC(=O)OC(C)(C)C)CC2)cc1-c1cnc2c(N)nccn12` [Example 55, tert-Butyl [trans-4-({[3-(8-aminoimidazo[1,2-a]pyrazin-3-yl)-4-methylphenyl]sulfonyl}amino)cyclohexyl]carbamate], the IC50 is greater than 2000 nM in experiment [1], greater than 1000 nM in experiment [2] (Homo sapiens) and less than 100 nM in experiment [3].
For `Cc1ccc(S(=O)(=O)N[C@H]2CC[C@H](O)CC2)cc1-c1cnc2c(N)cc(-c3cnn(C)c3)cn12` [Example 8, 3-[8-Amino-6-(1-methyl-1H-pyrazol-4-yl)imidazo[1,2-a]pyridin-3-yl]-N-(trans-4-hydroxycyclohexyl)-4-methylbenzenesulfonamide bis(trifluoroacetate)], in that order: 100 to 500 nM, greater than 1000 nM and less than 100 nM.

The values are drawn from patent US10479795B2 (Incyte Corporation, priority 2016, dated 2019).
